# Measured values as given in patent US20240336602A1 (Katholieke Universiteit Leuven, priority 2020, published 2024).
# Where “and” joins values, the source holds several entries; their conditions need not be identical. Identical values can stand only once.
# Molecular target: T1, mouse TRPM3a2 (mTRPM3) ion channel (Mus musculus, UniProt J9SQF3)
# T1 construct: expressed in transfected cells; host or cells: flip-in HEK293
# Test: TRPM3 ion channel driven Ca2+ uptake, Fluo-4 AM assay (PS-stimulated, overexpressing flip-in HEK293 cells)
# Type: cell-based
# Settings: PS (50 μM) stimulated Ca2+ influx, HEK293, cpds 200-299
# Protocol: In order to monitor the inhibition of the mouse TRPM3a2 (mTRPM3) ion channel by the compounds of the invention, a cellular system making use of an mTRPM3alpha2 or hTRPM3 overexpressing cell line (flip-in HEK293) was used. The TRPM3 channel was stimulated/opened with Pregnenolone sulfate (PS) (50 μM) which results in Ca^2+ influx.
# For mTRPM3, the intracellular Ca^2+ was measured with a Calcium responsive dye, Fluor-4 AM ester (Invitrogen). Cells were cultured until a confluence of 80-90%, washed with Versene (Invitrogen) and detached from the surface by a short incubation with 0.05% Trypsin (Invitrogen). The trypsination process was stopped by the addition of complete cell culture medium (DMEM, glutamax, 10% FCS, NEAA, Pen-Strep). Cells were collected and resuspended in Krebs buffer without Calcium at RT.
# Prior the cell seeding (±2000 cells/well into a black, 384 well plate (Greiner)) the diluted compound was added in the assay plate, together with the PS dissolved in Krebs buffer containing Calcium. […] Directly after cell addition the plates were read on an Envision fluorescence reader (Perkin Elmer) by an Excitation of 485 nm and emission at 535 nm.
# Channel inhibition was calculated compared to a non-PS stimulated control versus a condition stimulated with PS (50 μM) with vehicle. The ability of the compounds of the invention to inhibit this activity was determined as: Percentage inhibition=[1-((RFU determined for sample with test compound present—RFU determined for sample with positive control inhibitor) divided by (RFU determined in the presence of vehicle—RFU determined for sample with positive control inhibitor))]*100.
# T1 sequence (J9SQF3 1-1709 isoform J9SQF3-12): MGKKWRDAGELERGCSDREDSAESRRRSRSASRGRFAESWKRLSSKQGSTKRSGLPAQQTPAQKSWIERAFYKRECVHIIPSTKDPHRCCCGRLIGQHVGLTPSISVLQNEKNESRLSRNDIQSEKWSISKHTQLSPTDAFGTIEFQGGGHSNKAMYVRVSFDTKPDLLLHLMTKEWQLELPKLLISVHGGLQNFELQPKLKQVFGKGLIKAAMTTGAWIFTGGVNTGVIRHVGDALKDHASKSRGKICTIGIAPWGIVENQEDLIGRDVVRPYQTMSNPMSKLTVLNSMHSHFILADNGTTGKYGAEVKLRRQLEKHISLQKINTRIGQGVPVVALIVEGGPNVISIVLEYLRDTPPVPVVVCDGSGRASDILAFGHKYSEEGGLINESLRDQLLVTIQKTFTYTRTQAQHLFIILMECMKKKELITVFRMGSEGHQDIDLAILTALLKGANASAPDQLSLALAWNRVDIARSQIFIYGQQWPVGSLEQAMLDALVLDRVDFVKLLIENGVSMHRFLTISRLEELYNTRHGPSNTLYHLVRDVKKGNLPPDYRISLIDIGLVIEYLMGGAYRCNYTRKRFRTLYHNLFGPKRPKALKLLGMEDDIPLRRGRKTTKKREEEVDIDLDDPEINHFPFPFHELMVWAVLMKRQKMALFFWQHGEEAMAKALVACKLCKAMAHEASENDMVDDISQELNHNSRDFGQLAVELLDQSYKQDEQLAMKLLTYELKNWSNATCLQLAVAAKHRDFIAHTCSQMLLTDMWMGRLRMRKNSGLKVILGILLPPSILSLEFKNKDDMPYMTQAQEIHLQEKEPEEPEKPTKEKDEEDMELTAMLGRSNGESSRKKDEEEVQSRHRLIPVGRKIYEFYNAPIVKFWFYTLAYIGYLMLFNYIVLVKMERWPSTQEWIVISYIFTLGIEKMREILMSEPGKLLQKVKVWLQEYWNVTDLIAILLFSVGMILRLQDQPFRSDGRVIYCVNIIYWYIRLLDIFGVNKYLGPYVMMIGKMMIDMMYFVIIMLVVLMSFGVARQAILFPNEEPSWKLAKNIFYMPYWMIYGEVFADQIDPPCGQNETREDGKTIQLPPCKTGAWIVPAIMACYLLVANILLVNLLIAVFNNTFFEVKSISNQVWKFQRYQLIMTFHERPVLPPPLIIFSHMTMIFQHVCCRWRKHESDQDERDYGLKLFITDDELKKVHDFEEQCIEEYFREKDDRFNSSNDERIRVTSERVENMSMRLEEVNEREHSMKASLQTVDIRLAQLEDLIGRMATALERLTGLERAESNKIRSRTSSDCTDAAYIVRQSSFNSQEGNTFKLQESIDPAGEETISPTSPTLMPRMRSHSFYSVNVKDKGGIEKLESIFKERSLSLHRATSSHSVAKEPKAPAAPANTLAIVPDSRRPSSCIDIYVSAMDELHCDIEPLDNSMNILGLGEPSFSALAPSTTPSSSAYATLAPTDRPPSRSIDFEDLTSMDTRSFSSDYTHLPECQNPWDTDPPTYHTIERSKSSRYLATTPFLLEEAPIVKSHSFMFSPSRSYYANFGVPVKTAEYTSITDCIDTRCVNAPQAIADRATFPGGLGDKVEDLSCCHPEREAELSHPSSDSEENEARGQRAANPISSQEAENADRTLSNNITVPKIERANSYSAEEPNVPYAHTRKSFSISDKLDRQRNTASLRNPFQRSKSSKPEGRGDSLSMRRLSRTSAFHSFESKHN
row,IC50 [nM],SMILES
1,1000 to 20000,"Cc1ncsc1COc1ccc2oc(C)c(C(=O)NC3(CO)CNC3)c2c1 [compound 201, N-(3-(hydroxymethyl)azetidin-3-yl)-2-methyl-5-((4-methylthiazol-5-yl)methoxy)benzofuran-3-carboxamide]"
2,1000 to 20000,"Cc1oc2ccc(OCc3cccnc3C(F)(F)F)cc2c1C(=O)NC1(CO)CNC1 [compound 202, N-(3-(hydroxymethyl)azetidin-3-yl)-2-methyl-5-((2-(trifluoromethyl)pyridin-3-yl)methoxy)benzo-furan-3-carboxamide]"

# Same assay, conditions: PS (50 μM) stimulated Ca2+ influx, HEK293, cpds 300-399
row,IC50 [nM],SMILES
1,≤ 1000,Cc1oc2ccc(OCc3cccnc3O)cc2c1C(=O)NC1COCC1O (stereo not shown) [350 - En 1]
2,1000 to 20000,"Cc1oc2ccc(OCc3cccnc3O)c(F)c2c1C(=O)NC1(CO)CCOCC1 [compound 329, 4-fluoro-N-(4-(hydroxymethyl)tetrahydro-2H-pyran-4-yl)-2-methyl-5-((2-oxo-1,2-dihydropyridin-3-yl)methoxy)benzofuran-3-carboxamide]"

# Same assay, conditions: PS (50 μM) stimulated, cpd 001-199
row,IC50 [nM],SMILES
1,≤ 1000,"Cc1oc2ccc(OCc3nccs3)cc2c1C(=O)NC1CCNC1=O (stereo not shown) [compound 036, 2-methyl-N-(2-oxopyrrolidin-3-yl)-5-(thiazol-2-ylmethoxy)benzofuran-3-carboxamide]"
2,≤ 1000,"COc1ncccc1COc1ccc2oc(C)c(C(=O)NC3CCNC3=O)c2c1 (stereo not shown) [compound 046, 5-((2-methoxypyridin-3-yl)methoxy)-2-methyl-N-(2-oxopyrrolidin-3-yl)benzofuran-3-carboxamide]"
3,1000 to 20000,"Cc1ncsc1COc1cc(F)c2oc(C)c(C(=O)NC3(CO)CCOCC3)c2c1 [compound 122, 7-fluoro-N-(4-(hydroxymethyl)tetrahydro-2H-pyran-4-yl)-2-methyl-5-((4-methylthiazol-5-yl)-methoxy)benzofuran-3-carboxamide]"
4,1000 to 20000,"Cc1cc2oc(C)c(C(=O)NC3(CO)CCOCC3)c2cc1OCc1scnc1C [compound 185, N-(4-(hydroxymethyl)tetrahydro-2H-pyran-4-yl)-2,6-dimethyl-5-((4-methylthiazol-5-yl)methoxy)-benzofuran-3-carboxamide]"
5,1000 to 20000,"Cc1ncsc1COc1cc(C)c2oc(C)c(C(=O)NC3(CO)CCOCC3)c2c1 [compound 186, N-(4-(hydroxymethyl)tetrahydro-2H-pyran-4-yl)-2,7-dimethyl-5-((4-methylthiazol-5-yl)methoxy)benzofuran-3-carboxamide]"
6,1000 to 20000,"Cc1ncsc1COc1cc(C#N)c2oc(C)c(C(=O)NC3(CO)CCOCC3)c2c1 [compound 188, 7-cyano-N-(4-(hydroxymethyl)tetrahydro-2H-pyran-4-yl)-2-methyl-5-((4-methylthiazol-5-yl)methoxy)benzofuran-3-carboxamide]"

# Same assay, conditions: PS (50 μM) stimulated, cpds. 400-499
row,IC50 [nM],SMILES
1,≤ 1000,"Cc1ncc(COc2ccc3oc(C)c(C(=O)N[C@@H](CO)c4nc5ccccc5[nH]4)c3c2)s1 [401 - En 1, (R)-N-(1-(1H-benzo[d]imidazol-2-yl)-2-hydroxyethyl)-2-methyl-5-((2-methylthiazol-5-yl)methoxy)benzofuran-3-carboxamide]"
2,1000 to 20000,Cc1ncsc1COc1ccc2oc(C)c(C(=O)NC3CCN(CCOCCO)C3=O)c2c1 (stereo not shown) [402 - En 1]
3,≤ 1000,Cc1ncc(COc2ccc3oc(C)c(C(=O)NC(C)C(N)=O)c3c2)s1 (stereo not shown) [434 - En 2]
4,≤ 1000,Cc1oc2ccc(OCc3ccccn3)cc2c1C(=O)NC(C)C(N)=O (stereo not shown) [435 - En 2]
5,≤ 1000,Cc1ncsc1COc1ccc2oc(C)c(C(=O)NC(COC(F)F)C(N)=O)c2c1 (stereo not shown) [448 - En 1]
6,≤ 1000,Cc1oc2ccc(OCc3ccccn3)cc2c1C(=O)NC(CO)C(N)=O (stereo not shown) [455 - En 2]
7,≤ 1000,Cc1ncsc1COc1ccc2oc(C)c(C(=O)NC(CCO)C(N)=O)c2c1 (stereo not shown) [469 - En 1]

# Same assay, conditions: PS (50 μM) stimulated, cpds. 500-599
row,IC50,SMILES
1,≤ 1000 nM and 1000 to 20000 nM,Cc1ncc(COc2ccc3oc(C)c(C(=O)NC4(CO)CCNC4=O)c3c2)o1 (stereo not shown) [515 - En 1]
2,≤ 1000 nM,Cc1ncc(COc2ccc3oc(C)c(C(=O)NC4(CO)CCNC4=O)c3c2)s1 (stereo not shown) [517 - En 1]
3,≤ 1000 nM,Cc1ncsc1COc1ccc2oc(C)c(C(=O)NCC(C(N)=O)N(C)C)c2c1 (stereo not shown) [575 - En 1]
4,≤ 1000 nM,"Cc1ncsc1COc1ccc2oc(C)c(C(=O)N(C)C3(C(N)=O)COC3)c2c1 [compound 589, N-(3-carbamoyloxetan-3-yl)-N,2-dimethyl-5-((4-methylthiazol-5-yl)methoxy)benzofuran-3-carboxamide]"

# Same assay, conditions: PS (50 μM) stimulated, cpds. 600-666
row,IC50 [nM],SMILES
1,≤ 1000,"CNC(=O)C(CO)NC(=O)c1c(C)oc2ccc(OCc3scnc3C)cc12 (single isomer, unassigned) [600 - En 1]"
2,≤ 1000,"CNC(=O)C(CO)NC(=O)c1c(C)oc2ccc(OCc3ccccn3)cc12 (single isomer, unassigned) [601 - En 1]"
3,≤ 1000,"CNC(=O)C(CO)NC(=O)c1c(C)oc2ccc(OCc3ccccn3)cc12 (single isomer, unassigned) [601 - En 2]"
4,≤ 1000,"Cc1oc2ccc(OCc3cccnc3O)cc2c1C(=O)NC1CNCC1(F)F (single isomer, unassigned) [640 - En 1]"
5,≤ 1000,"Cc1oc2ccc(OCc3ccnn3C)cc2c1C(=O)NC1COCC1O (single isomer, unassigned) [655 - En 1]"
6,≤ 1000,"Cc1oc2ccc(OCc3ccnn3C)cc2c1C(=O)NC1COCC1O (single isomer, unassigned) [655 - En 2]"
7,1000 to 20000,"Cc1oc2ccc(OCc3ccnn3C)cc2c1C(=O)NC1COCC1O (single isomer, unassigned) [656 - En 1]"
8,1000 to 20000,"Cc1oc2ccc(OCc3ccnn3C)cc2c1C(=O)NC1COCC1O (single isomer, unassigned) [656 - En 2]"
9,≥ 20000,"NC(=O)c1oc2ccc(OCc3cccnc3C(F)(F)F)cc2c1C(=O)NC1CCNCC1(F)F (single isomer, unassigned) [657 - En 1, N3-(3,3-difluoropiperidin-4-yl)-5-((2-(trifluoromethyl)pyridin-3-yl)methoxy)benzofuran-2,3-dicarboxamide]"
10,1000 to 20000,Cc1oc2ccc(OCc3nccn3C)cc2c1C(=O)NC1COCC1O (stereo not shown) [653 - En 1]
11,1000 to 20000,Cc1oc2ccc(OCc3nccn3C)cc2c1C(=O)NC1COCC1O (stereo not shown) [654 - En 2]

# Same assay, conditions: PS (50 μM) stimulated, cpds. 667-751
row,IC50 [nM],SMILES
1,≤ 1000,"Cc1oc2ccc(OCc3ccccn3)cc2c1C(=O)NC1(CO)CCCNC1=O (single isomer, unassigned) [719 - En 1]"
2,≤ 1000,"COc1ncccc1COc1ccc2oc(C)c(C(=O)NC(C)(CO)C(N)=O)c2c1 (single isomer, unassigned) [720 - En 1]"
3,≤ 1000,"Cc1ncc(COc2ccc3oc(C)c(C(=O)NC4(C(N)=O)CCOC4)c3c2)o1 (single isomer, unassigned) [725 - En 1]"
4,1000 to 20000,"Cc1ncsc1COc1ccc2oc(C)c(C(=O)NC3(CO)CCNC3)c2c1 (single isomer, unassigned) [728 - En 1]"
5,≤ 1000,"Cc1ncsc1COc1ccc2oc(C)c(C(=O)NC3(CO)CCNC3)c2c1 (single isomer, unassigned) [728 - En 2]"
6,≤ 1000,"Cc1ncsc1COc1ccc2oc(C)c(C(=O)NC(Cn3cncn3)C(N)=O)c2c1 (single isomer, unassigned) [729 - En 1]"
7,≤ 1000,"Cc1ncsc1COc1ccc2oc(C)c(C(=O)NC(Cn3cncn3)C(N)=O)c2c1 (single isomer, unassigned) [729 - En 2]"
8,≤ 1000,"Cc1oc2ccc(OCc3c[nH]nc3C(F)(F)F)cc2c1C(=O)NC1(CO)CCCNC1=O (single isomer, unassigned) [731 - En 1]"
9,≤ 1000,"Cc1oc2ccc(OCc3ccnn3C)cc2c1C(=O)NC1(CO)CCCNC1=O (single isomer, unassigned) [732 - En 1]"
10,≤ 1000,"Cc1oc2ccc(OCc3ccnn3C)cc2c1C(=O)NC1(CO)CCNC1=O (single isomer, unassigned) [733 - En 1]"
11,≤ 1000,"Cc1oc2ccc(OCc3cccnn3)cc2c1C(=O)NC1(CO)CCNC1=O (single isomer, unassigned) [734 - En 1]"
12,1000 to 20000,"Cc1oc2ccc(OCc3cccnn3)cc2c1C(=O)NC1(CO)CCNC1=O (single isomer, unassigned) [734 - En 2]"
13,≤ 1000,"Cc1oc2ccc(OCc3ccc(F)cn3)cc2c1C(=O)NC1(CO)CCNC1=O (single isomer, unassigned) [735 - En 1]"
14,≤ 1000,"Cc1oc2ccc(OCc3cccnc3C(F)F)cc2c1C(=O)NC1(CO)CCNC1=O (single isomer, unassigned) [736 - En 1]"
15,≤ 1000,"Cc1oc2ccc(OCc3cccnc3C(F)F)cc2c1C(=O)NC1(CO)CCCNC1=O (single isomer, unassigned) [737 - En 1]"
16,≤ 1000,"Cc1oc2ccc(OCc3ccnn3CC(F)F)cc2c1C(=O)NC1(C(N)=O)CCOC1 (single isomer, unassigned) [740 - En 1]"
17,≤ 1000,"Cc1oc2ccc(OCc3ccnn3CC(F)F)cc2c1C(=O)NC1(C(N)=O)CCOC1 (single isomer, unassigned) [740 - En 2]"
